Data taken from patent US8093393B2, “Cationic ceramides, and analogs thereof, and their use for preventing or treating cancer” (MUSC Foundation for Research Development, priority 2004, dated 2012).
Converted amounts (≈) assume the structure as drawn. “And” between values parts separate entries of the source, which are not always exact repeats. Equal values may be shown once. Read-outs that look alike come from different tables or passages of the source. Each block holds one molecule with its values, some of them ahead of it.

Assays:
[1] = mice; cited from earlier work
UM-SCC-22A cells = experiment: MTT cell survival assay and isobologram studies; format: cell-based, human
[2] = Solubility of ceramides and ceramidoids in water
[3] = system: MCF7 breast carcinoma cells; experiment: Cell proliferation and viability, Trypan blue exclusion assay; format: cell-based; conditions: for IC50: 48 h treatment, read-out: IC50, inhibitory effect on MCF7 cell growth
Protocol: FIGS. 5A-5F show the dose dependent effects of CCPS analogs on survival of MCF7 breast carcinoma cells in comparison to the activity of D-e-C6-ceramide, which is commonly used as a model of ceramide action. Cell proliferation and cell viability were determined by Trypan blue exclusion assay. These assays were performed using duplicate samples in two or three independent experiments.
Cell Proliferation: Cells were seeded into plates at a density of approx. 50% corresponding to 1×10^6 cells, in 10 ml of 10% FCS and after an over night incubation the cells were treated with LCL compounds at concentration 0-20 μM in ethanol (ethanol level was kept below 0.1%) and the changes in cell numbers after 48 h were determined and expressed as a percentage of the untreated controls.
Briefly, media was removed, cells were washed twice with PBS, detached using 1% Trypsin and centrifuged at 800 rpm. Cell pellets were resuspended in PBS and Trypan blue (Sigma Chemicals, St. Louis, Mo., USA) was added (1:1 dilution). Under light microscope, the percentage of unstained and stained cells was assessed.
To examine the anticancer activity of CCPS analogs of the invention, their inhibitory effect on MCF7 breast carcinoma cells were analyzed and compared to the activity of D-e-C6-ceramide, which is commonly used as a model of action for ceramides. Cell proliferation and cell viability were determined by Trypan blue exclusion assay.

MCF7 cells = conditions: 5 μM
Protocol: FIGS. 4A-4C show the cellular levels of CCPS analogs. MCF 7 cells were treated with 5 μM concentration of CCPS analogs over the time and cellular level of the nonmetabolized CCPSs was measured by MS methodology as shown under Experimental. Results are expressed as % of concentration applied.
A parallel set of cells was used to determine cell proliferation and to prepare lipid extracts for MS analysis.
Briefly, for the indicated points, media was removed, cells were washed twice with PBS, scraped into cold PBS (2×1.0 ml), transferred to glass vials and centrifuged for 5 min at 800 rpm. Cell pellets corresponding to ˜1×10^6 cells, were fortified with the internal standards IS (C17 base D-erythro-sphingosine: 17Sph, C17 sphingosine-1-phosphate: 17Sph-1P, N-palmitoyl-D-erythro-C13 sphingosine: 13CC16-Cer and N-heptadecanoyl-D-erythro-C17shingosine: 17CC17-Cer) and extracted (2×2 ml) into a one-phase solvent system with ethyl acetate/iso-propanol/water (60/30/10 v/v). One ml of this extract was used for Pi determination after lipid re-extraction by the Bligh and Dyer method. Remaining lipid extract was evaporated, reconstituted in 100 μl of methanol, and samples were injected on the Surveyor/TSQ 7000 LC/MS system and gradient eluted from the BDS Hypersil C8, 150×3.2 mm, 3 μm particle size column, with 1.0 mM methanolic ammonium formate/2 mM aqueous ammonium formate mobile phase system. Peaks corresponding to the target analytes and IS were collected and processed using the Xcalibur software system.
Cellular level of CCPS analogs was established by MS methodology.

[4] = system: isolated rat liver mitochondria; experiment: Accumulation / binding in isolated mitochondria; conditions: at 4 min
Protocol: FIG. 16. […] Bar 2 and 4 (+FCCP), ΔΨ was dissipated by addition of FCCP at 1 μM plus antimycin A at 0.5 μg/mg protein from the beginning of the experiment. Results are expressed as mean+SEM of n=3, *p=0.01 versus control.
FIG. 23. […] Trace 3 was corrected for the absorbance of TMRM.
Preparation of mitochondria from rat liver.
Mitochondrial incubation medium.
Analysis of ceramides by mass spectroscopy (MS).

[5] = system: isolated rat liver mitochondria; experiment: Mitochondrial permeabilization (ΔΨ, large-amplitude swelling); conditions: for mitochondrial large-amplitude swelling (in words): 60 μM
[6] = aqueous conditions at pH 4.5, 7.5 and 8.5 over 48 hrs
[7] = Homo sapiens, read-out: IC50 of chemotherapeutic agents
[8] = UM-SCC-22A, 48 hr, read-out: IC50, cell growth
[9] = UM-SCC-22A, 96 hr, DMEM, read-out: IC50, cell growth
[10] = Homo sapiens, UM-SCC-22A, MTT, read-out: IC50 of chemotherapeutic agents

Molecule: O=c1[nH]cc(F)c(=O)[nH]1 [5-FU, 5-fluorouracil, reference compound]
- MTD of reference drugs (known) [1]: 25 mg/kg
- IC50 (UM-SCC-22A cells; [7]): 1 to 100 µM

- Solubility at 37° C. [2]: 0.01 mg/mL (≈ 29.3 µM)
- Solubility at 37° C. ([mM]) [2]: (0.029) mM
Molecule: CCCCCCCCCCCCC/C=C/[C@@H](O)[C@H](CO)NC(C)=O [C2-Cer, D-erythro-C2-ceramide, reference compound]
- inhibitory effect on MCF7 cell growth (in words) ([3]; 48 h): inactive

- Solubility at 37° C. [2]: 0.0003 mg/mL (≈ 0.558 µM)
- Solubility at 37° C. ([mM]) [2]: (0.0005) mM
Molecule: CCCCCCCCCCCCC/C=C/[C@@H](O)[C@H](CO)NC(=O)CCCCCCCCCCCCCCC [C16-Cer, D-erythro-C16-ceramide, reference compound]

Molecule: N.N.[Cl][Pt][Cl] [CSP, cisplatinum]
- MTD of reference drugs (known) [1]: 9 mg/kg

Molecule: COc1cccc2c1C(=O)c1c(O)c3c(c(O)c1C2=O)C[C@@](O)(C(C)=O)C[C@@H]3O[C@H]1C[C@H](N)[C@H](O)[C@H](C)O1 [DNR, daunorubicin, reference compound]
- IC50 (UM-SCC-22A cells; [7]): 0.1 to 0.25 µM

Molecule: COc1cccc2c1C(=O)c1c(O)c3c(c(O)c1C2=O)C[C@@](O)(C(=O)CO)C[C@@H]3O[C@H]1C[C@H](N)[C@H](O)[C@H](C)O1 [DOX, doxorubicin]
- MTD of reference drugs (known) [1]: 1 to 2 mg/kg and 2 mg/kg
- IC50 (UM-SCC-22A cells; [7]): 0.1 to 0.25 µM

Molecule: CCCCCCCCCCCCC/C=C/[C@H](O)[C@H](CO)NC(=O)CCCCCCCCCCCCCCC[n+]1ccccc1.[Br-] [LCL87, L-threo-2-N-[16′-(1″-Pyridinium)-hexadecanoyl]-sphingosine Bromide]
- IC50 (UM-SCC-22A cells; [8]): ~1 µM
- IC50 (UM-SCC-22A cells; [9]): ~0.3 µM
- inhibitory effect on MCF7 cell growth (in words) ([3]; 48 h): similar, concentration dependent (1.0-10.0 μM) inhibitory effect on cell growth

Molecule: CCCCCCCCCCCCCC=CC(O)C(CO)NC(=O)CCCCCCCCCCC[n+]1ccccc1 (stereo not shown) [LCL89]
- IC50 (UM-SCC-22A cells; [8]): ~1 µM
- IC50 (UM-SCC-22A cells; [9]): ~0.3 µM

Molecule: CCCCCCCCCCCCCCC[C@@H](O)[C@H](CO)NC(=O)CCCCC[n+]1ccccc1.[Br-] [LCL143, D-erythro-2-N-[6′-(1″-Pyridinium)-hexanoyl]-4,5-dihydrosphingosine Bromide]
- Intracellular level, % of concentration applied (MCF7 cells; 1 h): 15%
- Cellular level, % of concentration applied (MCF7 cells; 5 h): 13%
- Cellular level, % of concentration applied (MCF7 cells; 24 h): 35%
- binding to mitochondria ([4]; 30 μM): 9.8±0.7 nmol/mg protein
- lag period of the induction of mitochondrial swelling versus C6-pyridinium-ceramide ([5]; 30 μM): three fold increase in the lag period
- IC50 [3]: 5 µM and 5.02 µM

Molecule: CCCCCCCCCCCCC/C=C/[C@@H](O)[C@H](CO)NC(=O)C[n+]1ccccc1.[Br-] [LCL150, D-erythro-2-N-[2′-(1″-Pyridinium)-acetyl]-sphingosine Bromide]
- Cellular level, % of concentration applied (MCF7 cells; 5 h): ~17%
- Cellular level, % of concentration applied (MCF7 cells; 24 h): 50%
- binding to mitochondria ([4]; 60 μM): 29.8 nmol/mg protein
- effect on ΔΨ and mitochondrial swelling (in words) ([5]; 40 μM): only minor changes in the magnitude of mitochondrial swelling and the value of ΔΨ
- mitochondrial large-amplitude swelling (in words) [5]: failed to induce the same degree of swelling
- effect on cell growth (in words) (UM-SCC-22A cells; UM-SCC-22A, 96 hr): did not exert a significant effect on cell growth
- IC50 [3]: 8 µM
- Stability (decomposition) by MS [6]: no evidence of their decomposition

- IC50 [3]: ~4 µM
Molecule: CCCCCCCCCCCCC/C=C/[C@@H](O)[C@H](CO)NC(=O)CCCCC[n+]1ccc(C=Cc2ccc(N(C)C)cc2)cc1 [LCL186, D-erythro-2-N-[6′-[1″-[4′″-[(4″″-N,N-Dimethylamino)styryl]-pyridinium]-hexanoyl]]-sphingosine Bromide]

- Solubility at 22° C. [2]: 62 mg/mL
- Solubility at 22° C. ([mM]) [2]: (103) mM
- Solubility at 37° C. [2]: 120 mg/mL
- Solubility at 37° C. ([mM]) [2]: (200) mM
- IC50 ([3]; listed as LCL-275): 15 µM
- IC50 [3]: ~20 µM
Molecule: CCCCCCCCCCCCC/C=C/[C@@H](O)[C@H](CO)NC(=O)c1ccc[n+](CCCCCCCC)c1.[Br-] [LCL275, D-erythro-2-(1′-Octylnicotinoyl)-sphingosine Bromide]

- IC50 ([3]; listed as LCL-277): 13 µM
- IC50 [3]: 8.5 µM
Molecule: CCCCCCCCCCCCC/C=C/[C@@H](O)[C@H](CO)NC(=O)CCc1ccc[n+](CCCC)c1 [LCL277, D-erythro-2-N-[3′-[3″-(1″-Butyl)-pyridinium]-propionoyl]-sphingosine Bromide]

Molecule: CCCCCCCCCCCCCCC[C@@H](O)[C@H](CO)NC(=O)C[n+]1ccccc1.[Br-] [LCL319, D-erythro-2-N-[2′-(1″-Pyridinium)-acetyl]-4,5-dihydrosphingosine Bromide]
- Cellular level, % of concentration applied (MCF7 cells; 5 h): 27%
- Cellular level, % of concentration applied (MCF7 cells; 24 h): 52%
- Solubility at 22° C. [2]: 0.9 mg/mL
- Solubility at 22° C. ([mM]) [2]: (1.8) mM
- Solubility at 37° C. [2]: 45 mg/mL
- Solubility at 37° C. ([mM]) [2]: (90) mM
- inhibition of MCF7 cell growth ([3]; 10 μM, 48 h): 15%
- IC50 [3]: 12.5 µM

Molecule: CN(Cc1cnc2nc(N)nc(N)c2n1)c1ccc(C(=O)N[C@@H](CCC(=O)O)C(=O)O)cc1 [MTX, methotrexate, reference compound]
- IC50 (UM-SCC-22A cells; [10]): 0.1 to 0.25 µM

Molecule: CC(=O)O[C@H]1C(=O)[C@@]2(C)[C@H]([C@H](OC(=O)c3ccccc3)[C@]3(O)C[C@H](OC(=O)[C@H](O)[C@@H](NC(=O)c4ccccc4)c4ccccc4)C(C)=C1C3(C)C)[C@]1(OC(C)=O)CO[C@@H]1C[C@@H]2O [PAX, paclitaxel, reference compound]
- IC50 (UM-SCC-22A cells; [10]): 1 to 100 µM

Molecule: COC(=O)c1ccccc1-c1c2ccc(=[N+](C)C)cc-2oc2cc(N(C)C)ccc12 [TMRM, reference compound]
- binding to mitochondria ([4]; 60 μM): 50±2.6 nmol/mg protein
- mitochondrial large-amplitude swelling (in words) [5]: fail to induce large-amplitude swelling

Molecule: c1ccc([P+](c2ccccc2)(c2ccccc2)c2ccccc2)cc1 [TPP^+, reference compound]
- mitochondrial large-amplitude swelling (in words) [5]: fail to induce large-amplitude swelling

Molecule: CCCCCCCCCCCCCCCC[n+]1ccccc1 [cetylpyridinium bromide, Cetylpyridinium bromide (CPB) monohydrate, reference compound]
- mitochondrial large-amplitude swelling (in words) [5]: only moderate mitochondrial swelling

Molecule: D-threo-2-N-[6′-(1″-Pyridinium)-hexanoyl]-sphingosine Bromide [LCL272]
- inhibitory effect on MCF7 cell growth (in words) ([3]; 48 h): caused inhibitory effect on MCF7 cell growth

Molecule: L-erythro-2-N-[6′-(1″-Pyridinium)-hexanoyl]-sphingosine Bromide [LCL187]
- inhibitory effect on MCF7 cell growth (in words) ([3]; 48 h): caused inhibitory effect on MCF7 cell growth
